Data on one compound can be found in ChEMBL document CHEMBL5120867, “Hernandezine Regulates Proliferation and Autophagy-Induced Apoptosis in Melanoma Cells” (J Nat Prod, 2022).

Format in all cases: functional
The subject of assay [1] is B16. The experiment in a line: Induction of cell cycle arrest in mouse B16 cells assessed as accumulation at G0/G1 phase incubated for 24 hrs by PI staining based flow cytometry analysis (reference value: 56.59 %).
Assay [2] relates to A-375. In words: Induction of cell cycle arrest in human A-375 cells assessed as accumulation at G2/M phase incubated for 24 hrs by PI staining based flow cytometry analysis (reference value: 8.87 %).
The subject of assay [3] is B16. In words: Induction of cell cycle arrest in mouse B16 cells assessed as accumulation at S phase incubated for 24 hrs by PI staining based flow cytometry analysis (reference value: 42.53 %).
In assay [4] the test system is B16. In words: Induction of cell cycle arrest in mouse B16 cells assessed as accumulation at G2/M phase incubated for 24 hrs by PI staining based flow cytometry analysis (reference value: 0.88 %).
Assay [5] concerns A-375. The experiment in a line: Induction of cell cycle arrest in human A-375 cells assessed as accumulation at G0/G1 phase incubated for 24 hrs by PI staining based flow cytometry analysis (reference value: 56.69 %).
Assay [6] has as its system A-375. In words: Induction of cell cycle arrest in human A-375 cells assessed as accumulation at S phase incubated for 24 hrs by PI staining based flow cytometry analysis (reference value: 34.44 %).

Consider `N#C/C(=C\c1ccc(O)c(O)c1)C(=O)NCc1ccccc1`, for which the Activity in assay [1] came to 82.17%; in assay [2], 6.92%; in assay [3], 15.11%; in assay [4], 2.72%; in assay [5] it was 61.48%; in assay [6], 31.61%.
